Earlier results, collected in patent publication US20100330150A1, “Orally Disintegrating Tablet Compositions Comprising Combinations of High and Low-Dose Drugs” (priority 2009, published 2010).

What was measured:
[1] = tested on: serum protein; conditions: after normal therapeutic dosages

Plasma half-life (normal, healthy patients): 1 to 2.5 h
Time after which only traces of the drug are detectable (oral administration): about 8 hours
Time at which peak plasma concentrations are attained (oral administration): 30 to 60 min
Binding to serum protein [1]: about 25%
Compound: CC(=O)Nc1ccc(O)cc1 [acetaminophen]
